According to ChEMBL document CHEMBL1201862, “PubChem BioAssay data set” (2004):
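Growth conditions: 96-well plates. Treatment: test compound, 48 hours, 5 concentrations. Analysis: linear interpolation between bracketing concentrations; unreached endpoints set to highest concentration. GI50: concentration for 50% inhibition of growth.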 Activity calls are given as the source filed them. Cut-off read from the data, not from the text of the source: active = GI50 up to about 1.1 µM and inactive = higher.

Tests used:
Assay in all cases: growth of human tumour cells (NCI), 48 h
786-0 = system: 786-0
CAKI-1 = system: CAKI-1
HOP-62 = system: HOP-62
HOP-92 = system: HOP-92
Hs-578T = system: Hs-578T
IGROV-1 = system: IGROV-1
LOX IMVI = system: LOX IMVI
Malme-3M = system: Malme-3M
NCI-H226 = system: NCI-H226
NCI-H460 = system: NCI-H460
SN12C = system: SN12C
SNB-19 = system: SNB-19
SW-620 = system: SW-620
T47D = system: T47D
UACC-257 = system: UACC-257
UACC-62 = system: UACC-62
MDA-MB-231 = system: MDA-MB-231
MDA-MB-435 = system: MDA-MB-435
SF-539 = system: SF-539
A498 = system: A498

Measured: GI50

CC12C(=O)CC(CC1=O)C2(C)C
inactive: 786-0 > 100 µM | CAKI-1 > 100 µM | HOP-62 > 100 µM | HOP-92 > 100 µM | Hs-578T > 100 µM | IGROV-1 > 100 µM | LOX IMVI > 100 µM | Malme-3M > 100 µM | NCI-H226 > 100 µM | NCI-H460 > 100 µM | SN12C > 100 µM | SNB-19 > 100 µM | SW-620 > 100 µM | T47D > 100 µM | UACC-257 > 100 µM | UACC-62 > 100 µM

C[C@H](NC(=O)CNC(=O)CCCCCC(=O)NCC(=O)N[C@@H](C)C(=O)OCc1ccccc1)C(=O)OCc1ccccc1
inactive: 786-0 > 100 µM | CAKI-1 > 100 µM | HOP-62 > 100 µM | HOP-92 > 100 µM | Hs-578T > 100 µM | IGROV-1 > 100 µM | LOX IMVI > 100 µM | MDA-MB-231 > 100 µM | MDA-MB-435 > 100 µM | Malme-3M > 100 µM | NCI-H226 > 100 µM | SF-539 > 100 µM | SN12C > 100 µM | SNB-19 > 100 µM | SW-620 > 100 µM | T47D > 100 µM | UACC-257 > 100 µM | UACC-62 > 100 µM

O=C1C(=Cc2cccc(Cl)c2)N=C(c2ccccc2)N1n1c(-c2ccccc2)nc2ccccc2c1=O
inactive: 786-0 47.4 µM | CAKI-1 45.1 µM | HOP-62 34.8 µM | HOP-92 27 µM | Hs-578T 41.4 µM | IGROV-1 35.2 µM | LOX IMVI 31.3 µM | MDA-MB-231 50 µM | MDA-MB-435 36.8 µM | Malme-3M 50.8 µM | NCI-H226 63.4 µM | NCI-H460 6 µM | SF-539 27.9 µM | SN12C 45.2 µM | SNB-19 38.1 µM | SW-620 45.3 µM | T47D 29.7 µM | UACC-257 32.1 µM | UACC-62 23.9 µM

Cc1cc2c(c(C(=O)NCC(=O)N[C@@H](C)C(=O)OCc3ccccc3)c1)Oc1c(cc(C)cc1C(=O)NCC(=O)N[C@@H](C)C(=O)OCc1ccccc1)S2
inactive: 786-0 > 100 µM | A498 > 100 µM | CAKI-1 > 100 µM | HOP-62 71.3 µM | Hs-578T 26.2 µM | IGROV-1 99.1 µM | MDA-MB-231 34.4 µM | MDA-MB-435 > 100 µM | Malme-3M 16.1 µM | NCI-H226 > 100 µM | NCI-H460 > 100 µM | SN12C > 100 µM | SNB-19 > 100 µM | SW-620 > 100 µM | T47D 2.41 µM | UACC-257 > 100 µM | UACC-62 30.8 µM

COc1cc2c(cc1C)NC(=O)/C2=C/c1c(Cl)n(C)c2ccccc12
inactive: 786-0 12.7 µM | A498 5.86 µM | CAKI-1 5.06 µM | HOP-62 11.1 µM | Hs-578T 3.42 µM | IGROV-1 3.81 µM | LOX IMVI 7.69 µM | MDA-MB-231 12.9 µM | MDA-MB-435 1.71 µM | Malme-3M 8 µM | NCI-H226 4.53 µM | NCI-H460 6.71 µM | SF-539 12.1 µM | SN12C 12.8 µM | SNB-19 12.8 µM | SW-620 3.05 µM | T47D 2.62 µM | UACC-257 11.9 µM | UACC-62 5.73 µM

CCOC(=O)CCC(NC(=O)c1ccc(NCc2ccc3nc(OC)c(OC)nc3c2)c2ccccc12)C(=O)OCC (stereo unspecified)
inactive: 786-0 26.2 µM | A498 61.8 µM | CAKI-1 > 100 µM | HOP-62 25.9 µM | HOP-92 16.2 µM | IGROV-1 31.8 µM | LOX IMVI > 100 µM | MDA-MB-231 71.1 µM | MDA-MB-435 > 100 µM | Malme-3M > 100 µM | NCI-H226 > 100 µM | NCI-H460 > 100 µM | SF-539 20.8 µM | SN12C > 100 µM | SNB-19 76.2 µM | SW-620 > 100 µM | T47D > 100 µM | UACC-257 > 100 µM | UACC-62 73.8 µM

COC1CC(OC2C(C)OC(OC3C(C)OC(OC4C(O)CC(O[C@H]5CC[C@@]6(C)C(=CC[C@]7(O)[C@@H]6C[C@@H](OC(C)=O)[C@@]6(C)[C@]7(O)CC[C@@]6(O)C(C)=O)C5)OC4C)CC3OC)CC2OC)OC(C)C1O (stereo partly specified)
inactive: 786-0 > 12.5 µM | CAKI-1 > 12.5 µM | HOP-62 > 12.5 µM | HOP-92 > 12.5 µM | Hs-578T > 12.5 µM | IGROV-1 > 12.5 µM | LOX IMVI > 12.5 µM | MDA-MB-231 > 12.5 µM | MDA-MB-435 > 12.5 µM | Malme-3M 8.26 µM | NCI-H226 > 12.5 µM | SF-539 > 12.5 µM | SN12C > 12.5 µM | SNB-19 > 12.5 µM | SW-620 > 12.5 µM | T47D > 12.5 µM | UACC-257 > 12.5 µM | UACC-62 > 12.5 µM
